Results taken from patent US20230107642A1 (Erasca, Inc., priority 2020, published 2023).

Target: T1, Cys12 of the KRAS 4B G12C protein (Homo sapiens, UniProt P01116, G12C)
T1 construct: This protein contained 188 amino acids in total, including an N-terminal 6-Histidine tag; made in house; host or cells: E. coli BL21
Assay: In vitro covalent adduct formation (CAF) assay, LC-MS intact mass
Format: binding
Settings: 10 uM compound, 60 min
Procedure, shortened: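 GDP-loaded (>95%) His-TEV-tagged KRAS 4B G12C (residues 1–169), 5 μM in TBS pH 7.4, incubated with 10 μM compound (4% DMSO) at 22° C for one hour. Intact-protein LC-MS gave free:adduct ratios, reported as percent protein modified; duplicate runs.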

Row | SMILES | % CAF 10 uM @ 60 min [%]
1 | C=CC(=O)N1[C@H](C)CN(c2nc(=O)n3c4c(c(-c5c(F)cccc5F)c(C(F)(F)F)cc24)SC[C@@H]3COC)C[C@@H]1C [Example 1371, (S)-7-((3S,5R)-4-acryloyl-3,5-dimethylpiperazin-1-yl)-10-(2,6-difluorophenyl)-3-(methoxymethyl)-9-(trifluoromethyl)-2,3-dihydro-5H-[1,4]thiazino[2,3,4-ij]quinazolin-5-one] | 60.6
2 | C=CC(=O)N1CCN(c2nc(=O)n3c4c(c(-c5ccc(F)cc5F)c(C(F)(F)F)cc24)SC[C@@H]3CN2CCN(C3CC3)CC2)CC1 (atropisomer, axis not shown) [Example 1391, (3S,10S)-7-(4-acryloylpiperazin-1-yl)-3-((4-cyclopropylpiperazin-1-yl)methyl)-10-(2,4-difluorophenyl)-9-(trifluoromethyl)-2,3-dihydro-5H-[1,4]thiazino[2,3,4-ij]quinazolin-5-one] | 95.9
3 | C=CC(=O)N1CCN(c2nc(=O)n3c4c(c(-c5ccc(F)cc5F)c(C(F)(F)F)cc24)SC[C@@H]3CN2C[C@@H]3C[C@H]2CO3)CC1 (atropisomer, axis not shown) [Example 1306, (3S,10S)-3-(((1S,4S)-2-oxa-5-azabicyclo[2.2.1]heptan-5-yl)methyl)-7-(4-acryloylpiperazin-1-yl)-10-(2,4-difluorophenyl)-9-(trifluoromethyl)-2,3-dihydro-5H-[1,4]thiazino[2,3,4-ij]quinazolin-5-one] | 96.8

Now from value to compound:

Row | % CAF 10 uM @ 60 min [%] | SMILES
4 | 85 | C=CC(=O)N1[C@H](C)CN(c2nc(=O)n3c4c(c(-c5cc(Br)c(F)cc5F)c(C(F)(F)F)cc24)SC[C@@H]3COC)C[C@@H]1C [Example 1443, (3S)-7-((3S,5R)-4-acryloyl-3,5-dimethylpiperazin-1-yl)-10-(5-bromo-2,4-difluorophenyl)-3-(methoxymethyl)-9-(trifluoromethyl)-2,3-dihydro-5H-[1,4]thiazino[2,3,4-ij]quinazolin-5-one]
5 | 83.9 | C=CC(=O)N1[C@H](C)CN(c2nc(=O)n3c4c(c(-c5cc(Cl)c(F)cc5F)c(C(F)(F)F)cc24)SC[C@@H]3CN(C)C)C[C@@H]1C (atropisomer, axis not shown) [Example 1376, (3S,10S)-7-((3S,5R)-4-acryloyl-3,5-dimethylpiperazin-1-yl)-10-(5-chloro-2,4-difluorophenyl)-3-((dimethylamino)methyl)-9-(trifluoromethyl)-2,3-dihydro-5H-[1,4]thiazino[2,3,4-ij]quinazolin-5-one]

Same assay, conditions: 10 uM compound, 60 min incubation

Row | % CAF 10 uM @ 60 min [%] | SMILES
6 | 50.5 | C=CC(=O)N1[C@H](C)CN(c2nc(=O)n3c4c(c(-c5cc(Cl)c(F)cc5F)c(C(F)(F)F)cc24)SC[C@@H](N2CCCC2)C3)C[C@@H]1C (atropisomer, axis not shown) [Example 1138, (3S,11S)-8-((3S,5R)-4-acryloyl-3,5-dimethylpiperazin-1-yl)-11-(5-chloro-2,4-difluorophenyl)-3-(pyrrolidin-1-yl)-10-(trifluoromethyl)-3,4-dihydro-2H,6H-[1,4]thiazepino [2,3,4-ij]quinazolin-6-one]
7 | 92.1 | C=CC(=O)N1[C@H](C)CN(c2nc(=O)n3c4c(c(-c5cc(Cl)c(F)cc5F)c(C(F)(F)F)cc24)SCC2(COC2)C3)C[C@@H]1C (atropisomer, axis not shown) [Example 1125, (S)-8′-((3S,5R)-4-acryloyl-3,5-dimethylpiperazin-1-yl)-11′-(5-chloro-2,4-difluorophenyl)-10′-(trifluoromethyl)-2′H,4′H,6′H-spiro[oxetane-3,3′-[1,4]thiazepino [2,3,4-ij]quinazolin]-6′-one]

Same assay, conditions: 10 μM compound, after 1 hour

Row | SMILES | CAF (% after 1 hour) [%]
8 | C=CC(=O)N1[C@H](C)CN(c2nc(=O)n3c4c(c(-c5ccc(F)cc5)c(C(F)(F)F)cc24)SC[C@@H](NS(C)(=O)=O)C3)C[C@@H]1C [Example 1224, N—((S)-8-((3S,5R)-4-Acryloyl-3,5-dimethylpiperazin-1-yl)-11-(4-fluorophenyl)-6-oxo-10-(trifluoromethyl)-3,4-dihydro-2H,6H-[1,4]thiazepino[2,3,4-ij]quinazolin-3-yl)methanesulfonamide] | 96
9 | C=CC(=O)N1CCN(c2nc(=O)n3c4c(c(-c5cc(Cl)c(F)cc5F)c(C(F)(F)F)cc24)SC[C@@H](OC)C3)[C@@H]2CN(S(C)(=O)=O)C[C@@H]21 [Example 1212, (3S)-8-((4aS,7aR)-4-acryloyl-6-(methylsulfonyl)octahydro-1H-pyrrolo[3,4-b]pyrazin-1-yl)-11-(5-chloro-2,4-difluorophenyl)-3-methoxy-10-(trifluoromethyl)-3,4-dihydro-2H,6H-[1,4]thiazepino[2,3,4-ij]quinazolin-6-one] | 50

Results, then the compound that gave them:

Row | CAF (% after 1 hour) [%] | SMILES
10 | 38 | C=CC(=O)N1[C@H](C)CN(c2nc(=O)n3c4c(c(-c5cc(Cl)c(F)cc5F)c(C(F)(F)F)cc24)SC[C@@H](Oc2cc(C)on2)C3)C[C@@H]1C [Example 1231, (3S,11S)-8-((3S,5R)-4-acryloyl-3,5-dimethylpiperazin-1-yl)-11-(5-chloro-2,4-difluorophenyl)-3-((5-methylisoxazol-3-yl)oxy)-10-(trifluoromethyl)-3,4-dihydro-2H,6H-[1,4]thiazepino[2,3,4-ij]quinazolin-6-one]
11 | 92 | C=CC(=O)N1[C@H](C)CN(c2nc(=O)n3c4c(c(-c5cc(Cl)c(F)cc5F)c(C(F)(F)F)cc24)SCC2(CC(=O)C2)C3)C[C@@H]1C [Example 1243, 8′-((3S,5R)-4-acryloyl-3,5-dimethylpiperazin-1-yl)-11′-(5-chloro-2,4-difluorophenyl)-10′-(trifluoromethyl)-2′H,4′H,6′H-spiro[cyclobutane-1,3′-[1,4]thiazepino[2,3,4-ij]quinazoline]-3,6′-dione]

Same assay, conditions: after 60 min

Row | CAF (% binding after 60 min) [%] | SMILES
12 | 97 | C=CC(=O)N1CCN(c2nc(=O)n3c4c(c(-c5ccc(F)cc5)c(C(F)(F)F)cc24)SC[C@@H](OC)C3)CC1 [Example 1038, (S)-8-(4-acryloylpiperazin-1-yl)-11-(4-fluorophenyl)-3-methoxy-10-(trifluoromethyl)-3,4-dihydro-2H,6H-[1,4]thiazepino[2,3,4-ij]quinazolin-6-one]
13 | 96 | C=CC(=O)N1[C@H](C)CN(c2nc(=O)n3c4c(c(-c5ccc(F)cc5)c(Cl)cc24)SC[C@H](OC)C3)C[C@@H]1C [Example 1039, (R)-8-((3S,5R)-4-acryloyl-3,5-dimethylpiperazin-1-yl)-10-chloro-11-(4-fluorophenyl)-3-methoxy-3,4-dihydro-2H,6H-[1,4]thiazepino[2,3,4-ij]quinazolin-6-one]
14 | 95 | C=CC(=O)N1[C@H](C)CN(c2nc(=O)n3c4c(c(-c5ccc(F)cc5)c(C(F)(F)F)cc24)SC[C@@H](O)C3)C[C@@H]1C [Example 1003, (S)-8-((3S,5R)-4-acryloyl-3,5-dimethylpiperazin-1-yl)-11-(4-fluorophenyl)-3-hydroxy-10-(trifluoromethyl)-3,4-dihydro-2H,6H-[1,4]thiazepino[2,3,4-ij]quinazolin-6-one]
15 | 97 | C=CC(=O)N1[C@H](C)CN(c2nc(=O)n3c4c(c(-c5ccc(F)c(Cl)c5)c(C(F)(F)F)cc24)SC[C@@H](OCCN(C)C)C3)C[C@@H]1C [Example 1035, (S)-8-((3S,5R)-4-acryloyl-3,5-dimethylpiperazin-1-yl)-11-(3-chloro-4-fluorophenyl)-3-(2-(dimethylamino)ethoxy)-10-(trifluoromethyl)-3,4-dihydro-2H,6H-[1,4]thiazepino[2,3,4-ij]quinazolin-6-one]
